We go through 28 compounds from patent US10899755B2, “Benzothiazole compounds and uses thereof” (Incyte Corporation, priority 2018, dated 2021).

SMILES strings stand for the structures.

For this assay, the target named is HPK1 (Homo sapiens, UniProt Q92918). Nature of the assay: HPK1 Kinase Binding Assay. The conditions noted are these: active HPK1 (SignalChem M23-11G), tracer 222, LanthaScreen Eu-Anti GST antibody, one hour incubation at 25° C. On the technique in general: TR-FRET usually uses a lanthanide donor and a delayed reading to cut background.
Sequence of HPK1 (Q92918 whole entry, looked up): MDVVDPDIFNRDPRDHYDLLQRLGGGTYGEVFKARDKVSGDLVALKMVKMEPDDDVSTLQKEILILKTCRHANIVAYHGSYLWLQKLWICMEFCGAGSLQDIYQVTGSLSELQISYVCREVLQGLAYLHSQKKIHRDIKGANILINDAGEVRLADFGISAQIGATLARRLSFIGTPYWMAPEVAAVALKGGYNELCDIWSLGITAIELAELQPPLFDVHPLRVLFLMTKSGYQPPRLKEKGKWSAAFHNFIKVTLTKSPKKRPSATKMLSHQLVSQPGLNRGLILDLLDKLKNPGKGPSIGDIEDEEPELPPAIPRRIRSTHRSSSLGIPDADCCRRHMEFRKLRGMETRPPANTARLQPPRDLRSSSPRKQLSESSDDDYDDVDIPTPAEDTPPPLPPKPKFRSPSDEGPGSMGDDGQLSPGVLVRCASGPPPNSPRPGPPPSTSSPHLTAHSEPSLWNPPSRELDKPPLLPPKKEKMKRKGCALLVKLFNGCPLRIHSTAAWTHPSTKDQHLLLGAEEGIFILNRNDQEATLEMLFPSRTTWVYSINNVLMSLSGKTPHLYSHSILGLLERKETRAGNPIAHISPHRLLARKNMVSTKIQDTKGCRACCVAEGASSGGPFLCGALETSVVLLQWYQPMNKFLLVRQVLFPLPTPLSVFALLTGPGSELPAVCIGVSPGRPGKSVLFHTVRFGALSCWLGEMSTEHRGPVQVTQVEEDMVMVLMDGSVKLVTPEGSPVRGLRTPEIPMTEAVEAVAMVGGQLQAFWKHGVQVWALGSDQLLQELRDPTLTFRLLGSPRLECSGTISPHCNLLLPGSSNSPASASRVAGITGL

Description: A stock solution of 1 mM test compound was prepared in DMSO. The compound plate was prepared by 3-fold and 11-point serial dilutions. 0.1 μL of the compound in DMSO was transferred from the compound plate to the white 384 well polystyrene plates. The assay buffer contained 50 mM HEPES, pH 7.5, 0.01% Tween-20, 5 mM MgCl2, 0.01% BSA, and 5 mM DTT. 5 μL of 4 nM active HPK1 (SignalChem M23-11G) prepared in the buffer was added to the plate. The enzyme concentration given was based on the given stock concentration reported by the vender. […] After one hour incubation at 25° C., the plates were read on a PHERAstar FS plate reader (BMG Labtech). Ki values were determined.

A word on the Ki: it is the dissociation constant of the complex between target and ligand, obtained from inhibition or displacement. `CCc1nc2c(N3C[C@@H](N)C[C@H]3CO)c(NC(=O)c3ccnc(-c4c(F)cccc4OC)n3)ccc2s1` [Example 12, N-(4-((2S,4S)-4-Amino-2-(hydroxymethyl)pyrrolidin-1-yl)-2-ethylbenzo[d]thiazol-5-yl)-2-(2-fluoro-6-methoxyphenyl)pyrimidine-4-carboxamide] gave a Ki of less than 100 nM.

Compound `CNCc1cc(C)c(-c2nccc(C(=O)Nc3ccc4sc(C)nc4c3N3CC[C@@H](N)C3)n2)c(F)c1` [Example 4, (R)—N-(4-(3-Aminopyrrolidin-1-yl)-2-methylbenzo[d]thiazol-5-yl)-2-(2-fluoro-6-methyl-4-((methylamino)methyl)phenyl)pyrimidine-4-carboxamide] showed a Ki of less than 100 nM.

Take `COc1cccc(F)c1-c1nccc(C(=O)Nc2ccc3sc(C)nc3c2N2C[C@H]3C[C@@H]2CN3C(=O)N2CCOCC2)n1` [Example 25, 2-(2-Fluoro-6-methoxyphenyl)-N-(2-methyl-4((1R,4R)-5-(morpholine-4-carbonyl)-2,5-diazabicyclo[2.2.1]heptan-2-yl)benzo[d]thiazol-5-yl)pyrimidine-4-carboxamide]: the Ki is less than 100 nM.

`COc1cccc(F)c1-c1nccc(C(=O)Nc2ccc3sc(C)nc3c2N2CCC(c3ccccn3)C2)n1` (stereo not shown) [Example 29, 2-(2-Fluoro-6-methoxyphenyl)-N-(2-methyl-4-(3-(pyridin-2-yl)pyrrolidin-1-yl)benzo[d]thiazol-5-yl)pyrimidine-4-carboxamide]: the Ki was less than 100 nM.

The compound `COc1cccc(F)c1-c1nccc(C(=O)Nc2ccc3sc(C)nc3c2N2C[C@H](NC(C)C)C[C@H]2CO)n1` [Example 18, 2-(2-Fluoro-6-methoxyphenyl)-N-(4((2S,4R)-2-(hydroxymethyl)-4-(isopropylamino)pyrrolidin-1-yl)-2-methylbenzo[d]thiazol-5-yl)pyrimidine-4-carboxamide] gave an inhibitory constant (Ki) of less than 100 nM.

`COc1cccc(F)c1-c1nccc(C(=O)Nc2ccc3sc(C)nc3c2N2C[C@H](NC(C)=O)C[C@H]2CO)n1` [Example 20, N-(4-((2S,4R)-4-Acetamido-2-(hydroxymethyl)pyrrolidin-1-yl)-2-methylbenzo[d]thiazol-5-yl)-2-(2-fluoro-6-methoxyphenyl)pyrimidine-4-carboxamide] had an inhibition constant (Ki) of less than 100 nM.

On to `COCc1nc2c(N3CCC[C@H]3CN)c(NC(=O)c3ccnc(-c4c(F)cccc4OC)n3)ccc2s1` [Example 9, (S)—N-(4-(2-(Aminomethyl)pyrrolidin-1-yl)-2-(methoxymethyl)benzo[d]thiazol-5-yl)-2-(2-fluoro-6-methoxyphenyl)pyrimidine-4-carboxamide], for which the Ki was less than 100 nM.

For `COc1cccc(F)c1-c1nccc(C(=O)Nc2ccc3sc(C)nc3c2N2C[C@H]3C[C@@H]2CO3)n1` [Example 22, N-(4-((1R,4R)-2-Oxa-5-azabicyclo[2.2.1]heptan-5-yl)-2-methylbenzo[d]thiazol-5-yl)-2-(2-fluoro-6-methoxyphenyl)pyrimidine-4-carboxamide], the inhibition constant Ki was less than 100 nM.

As to `COc1cccc(F)c1-c1nccc(C(=O)Nc2cc(C#N)c3sc(C)nc3c2N2CC[C@H](N)C2)n1` [Example 8, (S)—N-(4-(3-Aminopyrrolidin-1-yl)-7-cyano-2-methylbenzo[d]thiazol-5-yl)-2-(2-fluoro-6-methoxyphenyl)pyrimidine-4-carboxamide], the Ki was less than 100 nM.

`COCCc1nc2c(N3CCC[C@H]3CN)c(NC(=O)c3ccnc(-c4c(F)cccc4OC)n3)ccc2s1` [Example 10, (S)—N-(4-(2-(Aminomethyl)pyrrolidin-1-yl)-2-(2-methoxyethyl)benzo[d]thiazol-5-yl)-2-(2-fluoro-6-methoxyphenyl)pyrimidine-4-carboxamide] had a Ki of less than 100 nM.

With `COc1cccc(F)c1-c1nccc(C(=O)Nc2ccc3sc(C)nc3c2N2C[C@H](N)C[C@H]2CO)n1` [Example 11, N-(4-((2S,4R)-4-Amino-2-(hydroxymethyl)pyrrolidin-1-yl)-2-methylbenzo[d]thiazol-5-yl)-2-(2-fluoro-6-methoxyphenyl)pyrimidine-4-carboxamide], the Ki is less than 100 nM.

Turning to `COc1cccc(F)c1-c1nccc(C(=O)Nc2cc(Cl)c3sc(C)nc3c2N2CC[C@H](N)C2)n1` [Example 5, (S)—N-(4-(3-Aminopyrrolidin-1-yl)-7-chloro-2-methylbenzo[d]thiazol-5-yl)-2-(2-fluoro-6-methoxyphenyl)pyrimidine-4-carboxamide], the inhibition constant (Ki) was less than 100 nM.

`Cc1nc2c(N3CC[C@@H](N)C3)c(NC(=O)c3ccnc(-c4c(C)cccc4F)n3)ccc2s1` [Example 2, (R)—N-(4-(3-Aminopyrrolidin-1-yl)-2-methylbenzo[d]thiazol-5-yl)-2-(2-fluoro-6-methylphenyl)pyrimidine-4-carboxamide] registered an inhibitory constant (Ki) of less than 100 nM.

In turn, `COc1ccc(-c2cnn(C)c2)c(F)c1-c1nccc(C(=O)Nc2ccc3sc(C)nc3c2N2C[C@H](N)C[C@H]2CO)n1` [Example 15, N-(4-((2S,4R)-4-Amino-2-(hydroxymethyl)pyrrolidin-1-yl)-2-methylbenzo[d]thiazol-5-yl)-2-(2-fluoro-6-methoxy-3-(1-methyl-1H-pyrazol-4-yl)phenyl)pyrimidine-4-carboxamide] gave an inhibition constant (Ki) of less than 100 nM.

Compound `COc1cccc(F)c1-c1nccc(C(=O)Nc2ccc3sc(C)nc3c2N2C[C@@H](N)C[C@H]2CO)n1` [Example 23, N-(4-((2S,4S)-4-amino-2-(hydroxymethyl)pyrrolidin-1-yl)-2-methylbenzo[d]thiazol-5-yl)-2-(2-fluoro-6-methoxyphenyl)pyrimidine-4-carboxamide] yielded a Ki of less than 100 nM.

With `COc1cccc(C(N)=O)c1-c1nccc(C(=O)Nc2ccc3sc(C)nc3c2N2C[C@H](N)C[C@H]2CO)n1` [Example 14, N-(4-((2S,4R)-4-Amino-2-(hydroxymethyl)pyrrolidin-1-yl)-2-methylbenzo[d]thiazol-5-yl)-2-(2-carbamoyl-6-methoxyphenyl)pyrimidine-4-carboxamide], the Ki lay in the range of 100 to 500 nM.

Regarding `COc1cccc(F)c1-c1nccc(C(=O)Nc2cc(Br)c3sc(C)nc3c2N2CC[C@H](N)C2)n1` [Example 6, (S)—N-(4-(3-Aminopyrrolidin-1-yl)-7-bromo-2-methylbenzo[d]thiazol-5-yl)-2-(2-fluoro-6-methoxyphenyl)pyrimidine-4-carboxamide], the Ki was less than 100 nM.

`COc1cccc(F)c1-c1nccc(C(=O)Nc2ccc3sc(C(C)C)nc3c2N2C[C@@H](N)C[C@H]2CO)n1` [Example 13, N-(4-((2S,4S)-4-Amino-2-(hydroxymethyl)pyrrolidin-1-yl)-2-isopropylbenzo[d]thiazol-5-yl)-2-(2-fluoro-6-methoxyphenyl)pyrimidine-4-carboxamide] registered a Ki of less than 100 nM.

For `COc1cccc(F)c1-c1nccc(C(=O)Nc2ccc3sc(C)nc3c2N2C[C@H](NC3CCOCC3)C[C@H]2CO)n1` [Example 19, 2-(2-Fluoro-6-methoxyphenyl)-N-(4((2S,4R)-2-(hydroxymethyl)-4-(tetrahydro-2H-pyran-4-ylamino)pyrrolidin-1-yl)-2-methylbenzo[d]thiazol-5-yl)pyrimidine-4-carboxamide], the Ki is less than 100 nM.

The compound `COc1cccc(F)c1-c1nccc(C(=O)Nc2ccc3sc(C)nc3c2N2C[C@H](NS(C)(=O)=O)C[C@H]2CO)n1` [Example 21, 2-(2-Fluoro-6-methoxyphenyl)-N-(4((2S,4R)-2-(hydroxymethyl)-4-(methylsulfonamido)pyrrolidin-1-yl)-2-methylbenzo[d]thiazol-5-yl)pyrimidine-4-carboxamide] displayed a Ki of less than 100 nM.

As for `COc1cccc(F)c1-c1nccc(C(=O)Nc2ccc3sc(CN(C)C)nc3c2N2C[C@H](N)C[C@H]2CO)n1` [Example 32, N-(4-((2S,4R)-4-amino-2-(hydroxymethyl)pyrrolidin-1-yl)-2-((dimethylamino)methyl)benzo[d]thiazol-5-yl)-2-(2-fluoro-6-methoxyphenyl)pyrimidine-4-carboxamide], the Ki was less than 100 nM.

Compound `COc1cccc(F)c1-c1nccc(C(=O)Nc2ccc3sc(C)nc3c2N(C)[C@@H]2CCCNC2)n1` [Example 27] had a Ki of less than 100 nM.

`COc1cccc(F)c1-c1nccc(C(=O)Nc2cc(C)c3sc(C)nc3c2N2CC[C@H](N)C2)n1` [Example 7, (S)—N-(4-(3-Aminopyrrolidin-1-yl)-2,7-dimethylbenzo[d]thiazol-5-yl)-2-(2-fluoro-6-methoxyphenyl)pyrimidine-4-carboxamide] yielded an inhibition constant (Ki) of less than 100 nM.

For the compound `COc1ccc(F)c(F)c1-c1nccc(C(=O)Nc2ccc3sc(C)nc3c2N2C[C@H](N)C[C@H]2CO)n1` [Example 16, N-(4-((2S,4R)-4-Amino-2-(hydroxymethyl)pyrrolidin-1-yl)-2-methylbenzo[d]thiazol-5-yl)-2-(2,3-difluoro-6-methoxyphenyl)pyrimidine-4-carboxamide], the Ki was less than 100 nM.

`Cc1nc2c(N3CC[C@@H](N)C3)c(NC(=O)c3ccnc(-c4c(F)cccc4F)n3)ccc2s1` [Example 1, (R)—N-(4-(3-Aminopyrrolidin-1-yl)-2-methylbenzo[d]thiazol-5-yl)-2-(2,6-difluorophenyl)pyrimidine-4-carboxamide] gave a Ki of less than 100 nM.

Consider `COc1cccc(F)c1-c1nccc(C(=O)Nc2ccc3sc(C)nc3c2N(C)CC2CCN(C)C2)n1` (stereo not shown) [Example 24, 2-(2-Fluoro-6-methoxyphenyl)-N-(2-methyl-4-(methyl((1-methylpyrrolidin-3-yl)methyl)amino)benzo[d]thiazol-5-yl)pyrimidine-4-carboxamide], for which the Ki is less than 100 nM.

In turn, `COc1cccc(F)c1-c1nccc(C(=O)Nc2ccc3sc(C)nc3c2N2CC(F)(F)C[C@H]2CO)n1` [Example 30, (S)—N-(4-(4,4-Difluoro-2-(hydroxymethyl)pyrrolidin-1-yl)-2-methylbenzo[d]thiazol-5-yl)-2-(2-fluoro-6-methoxyphenyl)pyrimidine-4-carboxamide] yielded an inhibitory constant (Ki) of less than 100 nM.

`COc1cccc(F)c1-c1nccc(C(=O)Nc2ccc3sc(C)nc3c2N2CCOC[C@@H]2CN)n1` [Example 26, (S)—N-(4-(3-(aminomethyl)morpholino)-2-methylbenzo[d]thiazol-5-yl)-2-(2-fluoro-6-methoxyphenyl)pyrimidine-4-carboxamide] came in with a Ki of less than 100 nM.
